In patent US5446055A, “Polyether naphthalenic lignan lactones as inhibitors of 5-lipoxygenase” (Abbott Laboratories, priority 1994, dated 1995):

Test system: LTB4 biosynthesis in human whole blood
Test: calcium ionophore-induced LTB4 biosynthesis in human whole blood
Format: cell-based
Conditions: at 13 nM; human heparinized whole blood, calcium ionophore A23187 challenge, LTB4 by radioimmunoassay; read-out: Inhibition of leukotriene biosynthesis
Protocol: Inhibition of leukotriene biosynthesis was evaluated in an assay, involving calcium ionophore-induced LTB4 biosynthesis expressed human whole blood. Human heparinized whole blood was preincubated with test compounds or vehicle for 15 min at 37° C. followed by calcium ionophore A23 187 challenge (final concentration of 8.3/μM) and the reaction terminated after 30 min by adding two volumes of methanol containing prostaglandin B2 as an internal recovery standard. The methanol extract was analyzed for LTB4 using a commercially available radioimmunoassay.

Question: With `CON=C(c1cccc(COc2ccc3c(-c4ccc(F)cc4)c4c(cc3c2)C(=O)OC4)c1)[C@H]1COC(C)(C)O1` [Example 1, O-methylE- and Z-(4"S)-7-[(3'-((2",2"-dimethyl-1",3"-dioxolan-4"-yl)oximinomethyl)phenyl)oxymethylene]-4-(4-fluorophenyl)naptho[2,3-c]furan-1(3H)-one] as the molecule, how does the inhibition at 0.013 µM read?
Answer: 52%
